{
  "source": "paper PMC10289085",
  "about": "“The cytotoxicity effect of 7-hydroxy-3,4-dihydrocadalene from Heterotheca inuloides and semisynthetic cadalenes derivates towards breast cancer cells: involvement of oxidative stress-mediated apoptosis” (PeerJ, 2023)",
  "key": {"[1]": {"tested_on": "MCF7 human breast cancer cells", "experiment": "MTT assay: cell viability", "type": "cell-based", "conditions": "for MCF7 cell viability: 0.1 to 100 µM, 24, 48 and 72 h; for IC50: MCF7, MTT", "method": "MCF7 (#HTB-22) cell line, derived from human breast adenocarcinoma, was obtained from the American Type Culture Collection (ATCC®, Manassas, VA, USA). It was maintained under standard conditions: RPMI-1640, 2.0 g/L NaHCO3, supplemented with 10% FBS and gentamicin […].\n(§1) Cells were treated with isolated compounds (0.1, 1, 5, 10, 25, 50 and 100 µM) for 24, 48 and 72 h. After treatments, culture media was replaced by MTT (100 μL) dissolved in RPMI media (0.33 mg/mL final concentration) per well and incubated at 37 °C with 5% CO2 for 1 h in dark. After incubating, supernatant was removed and replaced with DMSO to dissolve formazan crystals. Absorbance value was measured in a microplate reader (SPECTROstar Nano; BMG Labtech, Ortenberg, Germany) at 570 nm. IC25 and IC50 values were determined using GraphPad Prism 7.00 (GraphPad Software, La Jolla, CA, USA). Percentage of cell viability was calculated in comparison with control cells ([Mosmann, 1983])."}, "[2]": {"tested_on": "lipid peroxidation in MCF7 cells", "experiment": "TBARS assay: lipid peroxidation", "type": "cell-based, human", "conditions": "MCF7, 48 h", "method": "(§2) Mechanical scraping was employed to collect adherent MCF7 cells after treatments. Then, cells were centrifugated (1,500 rpm for 5 min at 37 °C) and supernatants were removed. Pellets were lyzed adding lysis buffer (25 mM TrisHCl, pH 7.4, 150 mM NaCl, 1 mM EDTA, 0.1% Triton X-100, 1 mg/mL leupeptin, 0.5 mM PMSF and 1 mg/mL pepstatin) and put on ice for 20 min. Finally, cell lysates were centrifugated (2,500 rpm for 10 min at 4 °C) and supernatants were collected to following assays.\nTotal protein concentrations were measured as described by [Smith et al. (1985)]. BCA/CuSO4 reactive solution (1:20) was added to each cell lysates and incubated in the dark for 30 min at 37 °C. Absorbance was measured with a SPECTROstar Nano microplate reader (BMG Labtech, Ortenberg, Germany) at a wavelength of 550 nm.\nLipid peroxidation was measured colorimetrically as described by [Uchiyama & Mihara (1978)]. Cell pellets, stored at −80 °C, were thawed at room temperature and then, they were homogenized in thiobarbituric acid reactive substances (TBARS) solution (28.2 mM 2-TBA in 18.5 mL of TCA 16%-HCl 0.27 N). Then, the mixtures were heated for 10 min at 100 °C, and subsequently cooled in ice to stop the reaction. Supernatants of each sample were separated by centrifugation (3,000 rpm for 10 min at 4 °C) and immediately loaded into a SPECTROstar Nano microplate reader (BMG Labtech, Ortenberg, Germany) for absorbance measurement at 530 nm. TBARS values were expressed as nmol/mg protein."}, "caspase 3": {"tested_on": "caspase 3", "experiment": "Immunoblotting of caspase 3", "type": "cell-based, human", "conditions": "MCF7, 48 h; compound at IC50 concentration, H2O2 1.0 mM", "method": "(§3) Western blot assays were performed using standard techniques. Primary antibodies were anti-caspase-3, Bcl-2 and GAPDH from Santa Cruz Biotechnology (Santa Cruz Biotechnology, Inc., Dallas, TX, USA). The secondary antibody was anti-rabbit IgG, HRP-linked (Antibody #7074; Cell Signaling Technology, Danvers, MA, USA)."}, "[3]": {"tested_on": "intracellular ROS in MCF7 cells", "experiment": "DCFH-DA assay: intracellular ROS detection", "type": "cell-based, human", "conditions": "compound at IC50 concentration, H2O2 1 mM", "method": "Intracellular ROS were detected by fluorescent compound DCFH-DA. Cells were treated with 1.0 mM H2O2, IC50 (55.2 μM) and IC50/2 (27.6 μM) of 7-hydroxy-3,4-dihydrocadalene for 48 h. Then, culture media was replaced with DCFH-DA (20 μM dissolved in glucose 1.8 mg/mL PBS) per well and incubated in the dark for 30 min. DCF fluorescence intensity was measured using an FLx800 microplate fluorescence reader (Bio-Tek Instruments, Inc., Winooski, VT, USA) at 480 and 530 nm excitation and emission wavelengths, respectively ([LeBel, Ischiropoulos & Bondy, 1992])."}, "caspase-9": {"tested_on": "caspase-9", "experiment": "Caspase-9 activity assay (fluorometric, cell lysates)", "type": "cell-based, human", "conditions": "MCF7, 48 h; for Caspase 9 activity compared to control cells: compound at IC50, H2O2 1.0 mM", "method": "as §2\n(§4) Fluorometric assays of caspase-3 and caspase-9 enzymes were performed in accordance with the instructions provided by ALEXIS Biochemicals kits (Enzo Life Sciences Inc., San Diego, CA, USA). This enzymatic assay was based on hydrolysis of the peptide substrates of caspases-3/9 (Ac-DEVD 20 μM and Ac-LEHD 20 μM, respectively) conjugated to a fluorochrome (7-amido-4-methylcoumarin or AMC) at the terminal carbon of Asp, resulting in the release of the fluorescent motif. Cell lysates (20 μg) were used for each treatment. After incubation for 1 h at 37 °C, fluorescence was determined using a FLx800 microplate reader at excitation and emission wavelengths of 380 and 460 nm, respectively."}, "MCF7 cells [4]": {"tested_on": "MCF7 cells", "experiment": "Cell morphology (Cytation 5 imaging)", "type": "cell-based, human", "conditions": "MCF7, 48 h; compound at IC50, H2O2 1 mM"}, "caspase-3": {"tested_on": "caspase-3", "experiment": "Caspase-3 activity assay (fluorometric, cell lysates)", "type": "cell-based, human", "conditions": "MCF7, 48 h", "method": "as §2, §4"}, "MCF7 cells [5]": {"tested_on": "MCF7 cells", "experiment": "Trypan blue dye exclusion assay: cell proliferation", "type": "cell-based, human", "conditions": "IC50 (55.24 μM)", "method": "Cells were trypsinized, centrifuged and stained with trypan blue dye (0.4% w/v in PBS). The number of viable cells and dead cells were counted on a Neubauer hemocytometer under an inverted microscope. The percentage of cell proliferation was calculated by comparing with control cells."}, "MCF7 cell line": {"tested_on": "MCF7 cell line", "design": "method as in Rodríguez-Chávez et al. (2015b)", "conditions": "ref Rodríguez-Chávez et al. (2015b); cited from earlier work"}, "Bcl-2": {"tested_on": "Bcl-2", "experiment": "Immunoblotting of Bcl-2", "type": "cell-based, human", "conditions": "MCF7, 48 h, IC50 and IC50/2", "method": "as §3"}, "MCF7 cells [6]": {"tested_on": "MCF7 cells", "experiment": "Wound-healing assay: cell migration", "type": "cell-based, human", "conditions": "IC50 (55.24 μM), 24, 48 and 72 h", "method": "Wound areas were monitored at four different times (0, 24, 48, and 72 h) using the Cytation 5 cell imager (BioTek Instruments, Inc., Winooski, VT, USA). To determine the migration rate of the cells, the wound areas were quantified using the ImageJ software, ([Schneider, Rasband & Eliceiri, 2012]). The variation between the percentage of cell migration (as a function of time) was calculated using the following formula:\n%Migration=100−[(Areaofinjurytimet/Areaofinjurytimezero)(100)]"}, "HEK 293 cells": {"tested_on": "HEK 293 cells", "experiment": "MTT assay: cell viability in non-tumoral control cells", "type": "cell-based, human", "conditions": "non-tumoral cells from kidney, 72 h", "method": "HEK 293 (CRL-1573) cell line, human embryonic kidney, was obtained from ATCC® (Manassas, VA, USA). It was grown in DMEM medium (Caisson Laboratories, Inc., Smithfield, UT, USA) with 10% v/v phenol red of inactivated FBS, 44 mM NaHCO3, 1 mM sodium pyruvate and penicillin 100 I.U.−100 μg/mL streptomycin−25 ng/mL amphotericin B, pH 7.4. Both cell lines were incubated at 37 °C and 5% CO2.\nas §1"}, "[7]": {"tested_on": "mitochondrial respiration of MCF7 cells", "experiment": "Cell respirometry (high resolution, O2k)", "type": "cell-based, human", "conditions": "MCF7, IC50, 48 h", "method": "The oxygen consumption experiments were performed using a high resolution respirometry equipment O2k meter (Oroboros Instruments, Innsbruck, Austria) described by [Aparicio-Trejo et al. (2019)]. The respiratory parameters were defined as: (A) Routine respiration, corresponding to oxygen consumption in presence only of cells in culture medium. (B) Leak of the respiration, corresponding to cellular oxygen consumption in presence of 15 μM oligomycin. (C) RCI corresponding to the ratio basal/leak. (D) Respiration attributable to OXPHOS (P) corresponding to: Routine-Leak. All parameters were corrected by subtracting non-mitochondrial respiration resulting from the addition of 15 μM rotenone and 15 μM antimycin A and normalized by cells number."}, "[8]": {"conditions": "compound at IC50 concentration, H2O2 1.0 mM"}},
  "note": "Entries after “also recorded” stand apart in the source; their conditions may differ.",
  "data": [
    {"compound": "Cc1cc2c(C(C)C)ccc(C)c2cc1OC(=O)Nc1ccccc1", "note": "[7-(phenylcarbamate)-cadalene]", "values": [
      {"measurement": "MCF7 cell viability", "setting": "[1]; MTT", "result": "lower or null cytotoxic potential; also recorded: not cytotoxic"},
      {"measurement": "MCF7 cell growth", "setting": "[1]; MTT, 10 and 50 µM at 72 h of exposure", "result": "slightly inhibited MCF7 cell growth"}
    ]},
    {"compound": "CC1=CC[C@H](C(C)C)c2cc(C)c(OC(=O)Nc3ccccc3)cc21", "note": "[7-(phenylcarbamate)-3,4-dihydrocadalene]", "values": [
      {"measurement": "MCF7 cell viability", "setting": "[1]; MTT", "result": "did not show a clear trend of MCF7 cell viability reduction; also recorded: lower or null cytotoxic potential; also recorded: not cytotoxic"}
    ]},
    {"compound": "CC/C(=C(\\c1ccc(O)cc1)c1ccc(OCCN(C)C)cc1)c1ccccc1", "note": "[(Z)-4-hydroxytamoxifen, reference compound]", "values": [
      {"measurement": "IC50", "setting": "[1]; 24 h, positive control", "result": 16.5, "unit": "µM"}
    ]},
    {"compound": "OO", "note": "[H2O2, hydrogen peroxide, reference compound]", "values": [
      {"measurement": "Lipid peroxidation levels (TBARS)", "setting": "[2]; [8]", "result": 0.24, "unit": "nmol/mg protein"},
      {"measurement": "Expression of caspase 3 (Western blot)", "setting": "caspase 3", "result": "increased"},
      {"measurement": "Intracellular ROS levels compared to control cells", "setting": "[3]", "result": 194.9, "unit": "%"},
      {"measurement": "Caspase 9 activity compared to control cells", "setting": "caspase-9", "result": 115.08, "unit": "%"},
      {"measurement": "Cell morphology", "setting": "MCF7 cells [4]", "result": "morphological changes (cells are rounded off, adhesion capacity decreases, and membrane is blebbing) were observed"},
      {"measurement": "Caspase 3 activity compared to control cells", "setting": "caspase-3; compound at IC50, H2O2 1.0 mM", "result": 136.25, "unit": "%"}
    ]},
    {"compound": "CC1=CC[C@H](C(C)C)c2cc(C)c(O)cc21", "note": "[7-hydroxy-3,4-dihydrocadalene]", "values": [
      {"measurement": "Cell proliferation", "setting": "MCF7 cells [5]", "result": "significantly reduced cell proliferation in a concentration and time dependent manner"},
      {"measurement": "IC50", "setting": "MCF7 cell line", "result": 61.4, "unit": "µM"},
      {"measurement": "Bcl-2 levels (Western blot)", "setting": "Bcl-2", "result": "Slightly differences of Bcl-2 levels were observed but not significant"},
      {"measurement": "MCF7 migration", "setting": "MCF7 cells [6]", "result": "significantly inhibits MCF7 migration"},
      {"measurement": "Lipid peroxidation levels (TBARS)", "setting": "[2]; IC50/2", "result": 0.23, "unit": "nmol/mg protein"},
      {"measurement": "Lipid peroxidation levels (TBARS)", "setting": "[2]; [8]", "result": 0.52, "unit": "nmol/mg protein"},
      {"measurement": "Effect on HEK 293 cell viability", "setting": "HEK 293 cells", "result": "without effect"},
      {"measurement": "IC50", "setting": "[1]; Homo sapiens, 48 h", "result": 55.2, "unit": "µM"},
      {"measurement": "IC50", "setting": "[1]; Homo sapiens, 72 h", "result": 52.8, "unit": "µM"},
      {"measurement": "MCF7 cell viability", "setting": "[1]; MTT", "result": "reduced MCF7 cell viability in a concentration and time-dependent manner"},
      {"measurement": "Expression of caspase 3 (Western blot)", "setting": "caspase 3", "result": "more evident"},
      {"measurement": "Intracellular ROS levels compared to control cells", "setting": "[3]", "result": 182, "unit": "%"},
      {"measurement": "RCI", "setting": "[7]", "result": "slightly reduction"},
      {"measurement": "Caspase 9 activity", "setting": "caspase-9; IC50/2 concentration", "result": "no effect"},
      {"measurement": "Caspase 9 activity compared to control cells", "setting": "caspase-9", "result": 118.42, "unit": "%"},
      {"measurement": "Cell morphology", "setting": "MCF7 cells [4]", "result": "morphological changes (cells are rounded off, adhesion capacity decreases, and membrane is blebbing) were observed"},
      {"measurement": "Caspase 3 activity", "setting": "caspase-3; IC50/2 concentration", "result": "no effect"}
    ]}
  ]
}
